Assay [1] deals with T1, calcium channel (guinea-pig isolated ileal longitudinal smooth muscle) (Cavia porcellus, UniProt O35505).
T1 construct: The longitudinal smooth muscle is carefully separated from the underlying circular muscle layer; from tissue; host or cells: guinea-pig ileal longitudinal smooth muscle
The assay is described as follows: Calcium Channel Antagonist Activity in Guinea-Pig Isolated Ileal Smooth Muscle. The assay is classed as cell-based. The source says: Calcium Channel Antagonist Activity in Guinea-Pig Isolated Ileal Smooth Muscle.
Male albino guinea-pigs are sacrificed by stunning and exsanguination. The abdominal cavity is opened and the small intestine is removed, with about 10 cm of the terminal ileum being discarded. The tissue is placed in a dish containing Tyrode's solution (composition, mM: […]; KCl 2.68; NaHCO3 11.90; NaH2 PO4 0.36; MgCl2 0.98; CaCl2 1.77; dextrose 5.55), and cut into three to four segments. A glass rod (6 mm diameter) is carefully inserted into the lumen of each segment, and excess connective tissue or fat is removed. The longitudinal smooth muscle is carefully separated from the underlying circular muscle layer by gently stroking a moist cotton swab on a tangent to shallow, longitudinal incisions made parallel to the mesenteric attachment. Using gentle traction, and taking care to keep the segment moist at all times, the preparation is stripped from the remaining length of the ileal segment (Paton & Zar, J. Physiol. 194, 13; 1968).
Each preparation is suspended in a 10 mL jacketed glass tissue bath containing Tyrode's solution maintained at 37° C. and gassed with 5% CO2 in O2. The preparation is attached by silk thread to a force-displacement transducer. […] The initial resting tension is adjusted to 0.5 g and the preparation equilibrated for 55 minutes prior to experimentation. At the end of this period, the bathing solution is replaced with Ca^2+ -free Tyrode's solution. This solution is prepared by omitting CaCl2. The preparation is washed four times in Ca^2+ -free Tyrode 's to remove any Ca^2+ remaining in the bath, and allowed to equilibrate for a further 20 minutes.
Concentration-response curves to CaCl2 are obtained using the following procedure. Preparations are exposed to a depolarizing concentration of KCl (80 mM) for 6 minutes. At the end of this period CaCl2 is added to the bath cumulatively in the concentration range 0.2-8.0 mM. Successive additions of each Ca^2+ concentration are carried out only when the previous response has reached a plateau. When the maximum response has been attained the bath is again washed (five times) with Ca^2+ -free buffer, and the preparation re-equilibrated for approximately 15 minutes. A second Ca^2+ concentration-response curve is then obtained in the same manner. This second curve serves as control for that tissue.
Further curves are obtained in the presence of increasing concentrations of the test drugs. Where appropriate, the test drug is added to the bath immediately following addition of KCl, and 6 minutes later the concentration-response curve to Ca^2+ is obtained. Each test preparation is exposed to three different concentrations of a test drug.
For each ileal preparation, the control EC50 for Ca^2+ (the concentration producing 50% of the maximum response) is determined from the control concentration-response curve. Calcium blocking activity is defined as a Kb value (the concentration producing a two-fold dextral shift in the control curve), calculated from EC50 ratios in the absence and presence of test drugs.

The test system of assay [2] is substance P-induced Cl- ion secretion by guinea-pig isolated ileal mucosa. The assay is classed as cell-based. The following applies: antagonist 5 μM serosal and mucosal, 5 minutes prior to substance P (1 μM).
Excerpt: Inhibition of Ileal Secretion.
This technique involves the measurement of Cl- ion secretion by guinea-pig isolated ileal mucosa, and provides a method for assessing the effect of drugs on intestinal electrolyte and water secretion. […] Cl- ion secretion in vitro, which is Ca^2+ -dependent, is quantitated as changes in electrical current (Isc) under short-circuited conditions.
Male Hartley guinea-pigs weighing 200-400 g were maintained on a standard laboratory diet with free access to food and water prior to sacrifice by decapitation. An approximately 15 cm segment of proximal ileum was removed and stripped of its underlying longitudinal muscle by blunt dissection. Four adjacent tissues were each mounted as flat sheets between Ussing chambers (two lucite half-chambers, exposed area=0.64 cm^2) and bathed on both sides by a physiological salt solution circulated by gas lift, and maintained at a pH of 7.4.
Electrical measurements were monitored with an automatic voltage clamp (World Precision Instruments, model DVC-1000). Two calomel electrodes with 4% agar Krebs Bicarbonate Ringer bridges were used to measure the transepithelial potential difference (PD) across the isolated mucosa. […] The Isc was recorded on a Gould chart recorder. […]
Assay [3] relates to Serotonin-Induced Diarrhea in Mice. Description: Inhibition of Serotonin-Induced Diarrhea in Mice. The assay is classed as in vivo, Male CF1 mice. The settings on record: Mus musculus, ip, 0.5 h, read-out: ED50 (95% confidence limits). Here is the method: Inhibition of Serotonin-Induced Diarrhea in Mice.
. The mice were weighed and an average weight was used to calculate the amount of drug to be administered. Drugs were prepared in isotonic saline or an appropriate vehicle at varying concentrations and were administered intraperitoneally. Control animals were given vehicles without any test drug. Serotonin was given intraperitoneally (i.p.) in all cases 30 minutes after i.p. administration of test drug. Mice were placed in individual cages containing racks and paper liners with free access to water. Mice were observed after 30 minutes, 60 minutes and 180 minutes and graded for presence or absence of diarrhea. The grading system consisted of positive (+), negative (-) and (±) based on consistency and liquid staining. The ED50 (effective dose in 50% of population) was calculated for each test drug using the method of Litchfield-Wilcoxin. […]

Where [4] appears, read: Kb = concentration producing a two-fold dextral shift in the control CaCl2 concentration-response curve, KCl (80 mM) depolarized ileal smooth muscle, read-out: Calcium antagonist Kb.
Setting [5] is: i.p., serotonin i.p. 30 minutes after test drug, mice, Litchfield-Wilcoxin.

As usually defined, the Kb is the affinity of an antagonist, worked out from how it opposes an agonist. The term ED50 denotes the midpoint of the dose-response relation.

Counter-ions that a name gives are not always drawn. Like-named read-outs stand apart in the source and are kept apart here.

T1 sequence (O35505 whole entry): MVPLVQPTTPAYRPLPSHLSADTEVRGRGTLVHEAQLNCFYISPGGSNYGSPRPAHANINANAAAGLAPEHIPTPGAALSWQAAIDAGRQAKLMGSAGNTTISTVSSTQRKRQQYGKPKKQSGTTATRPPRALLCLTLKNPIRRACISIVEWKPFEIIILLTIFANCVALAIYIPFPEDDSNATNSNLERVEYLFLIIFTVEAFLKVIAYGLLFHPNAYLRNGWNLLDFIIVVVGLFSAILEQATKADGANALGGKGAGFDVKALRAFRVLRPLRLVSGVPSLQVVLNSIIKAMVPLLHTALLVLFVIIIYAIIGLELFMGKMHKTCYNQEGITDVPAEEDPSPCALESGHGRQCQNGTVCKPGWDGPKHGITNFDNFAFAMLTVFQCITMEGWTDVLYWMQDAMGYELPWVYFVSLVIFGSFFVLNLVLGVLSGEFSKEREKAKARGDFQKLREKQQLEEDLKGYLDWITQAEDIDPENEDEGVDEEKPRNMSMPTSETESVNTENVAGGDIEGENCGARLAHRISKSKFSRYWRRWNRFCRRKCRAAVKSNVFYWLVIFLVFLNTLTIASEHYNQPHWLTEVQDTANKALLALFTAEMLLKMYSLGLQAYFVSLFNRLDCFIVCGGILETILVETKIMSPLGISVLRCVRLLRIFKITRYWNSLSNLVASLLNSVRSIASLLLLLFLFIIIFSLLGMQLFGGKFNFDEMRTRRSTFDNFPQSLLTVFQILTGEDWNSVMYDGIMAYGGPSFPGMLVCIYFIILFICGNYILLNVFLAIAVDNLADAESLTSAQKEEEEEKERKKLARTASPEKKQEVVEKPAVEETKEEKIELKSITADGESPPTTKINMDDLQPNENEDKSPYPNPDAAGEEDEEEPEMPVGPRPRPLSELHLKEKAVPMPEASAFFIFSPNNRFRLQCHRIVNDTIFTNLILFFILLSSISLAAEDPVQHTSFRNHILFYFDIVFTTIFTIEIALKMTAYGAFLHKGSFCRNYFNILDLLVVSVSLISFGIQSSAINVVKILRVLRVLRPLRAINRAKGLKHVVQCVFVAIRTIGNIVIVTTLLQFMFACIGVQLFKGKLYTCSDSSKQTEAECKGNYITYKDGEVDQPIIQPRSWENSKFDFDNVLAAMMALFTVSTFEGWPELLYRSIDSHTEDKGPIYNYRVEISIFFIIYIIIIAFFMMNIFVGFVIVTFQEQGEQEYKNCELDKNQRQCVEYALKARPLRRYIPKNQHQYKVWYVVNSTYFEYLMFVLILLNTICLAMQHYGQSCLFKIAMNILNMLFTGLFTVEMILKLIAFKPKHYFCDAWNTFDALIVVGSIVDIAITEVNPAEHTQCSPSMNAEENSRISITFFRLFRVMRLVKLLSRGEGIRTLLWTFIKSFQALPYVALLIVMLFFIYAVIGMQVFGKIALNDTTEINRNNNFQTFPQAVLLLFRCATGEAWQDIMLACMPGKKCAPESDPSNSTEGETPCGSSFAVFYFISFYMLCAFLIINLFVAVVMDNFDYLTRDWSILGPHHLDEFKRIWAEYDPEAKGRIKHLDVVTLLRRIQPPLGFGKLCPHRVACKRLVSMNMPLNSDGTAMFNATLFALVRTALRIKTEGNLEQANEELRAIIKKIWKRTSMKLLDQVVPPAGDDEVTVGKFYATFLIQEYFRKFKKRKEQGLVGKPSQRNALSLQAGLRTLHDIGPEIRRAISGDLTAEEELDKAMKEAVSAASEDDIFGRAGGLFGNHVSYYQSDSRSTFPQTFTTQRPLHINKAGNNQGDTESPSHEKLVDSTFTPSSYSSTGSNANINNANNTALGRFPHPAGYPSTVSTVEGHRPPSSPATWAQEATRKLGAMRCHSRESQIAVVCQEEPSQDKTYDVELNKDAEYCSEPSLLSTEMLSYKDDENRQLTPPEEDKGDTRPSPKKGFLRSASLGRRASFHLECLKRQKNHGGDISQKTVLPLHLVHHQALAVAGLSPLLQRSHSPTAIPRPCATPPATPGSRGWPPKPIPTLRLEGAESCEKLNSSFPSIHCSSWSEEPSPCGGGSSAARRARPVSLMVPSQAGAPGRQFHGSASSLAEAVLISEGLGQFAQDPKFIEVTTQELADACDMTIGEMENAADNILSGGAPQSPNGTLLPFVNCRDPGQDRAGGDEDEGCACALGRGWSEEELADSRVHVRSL

In the case of `CCN(CC)CC#CCCC1(C2(O)c3ccccc3Oc3ccccc32)SCCCS1` [2-(5-Diethylaminopent-3-ynyl)-2-(9-hydroxy-9H-xanthen-9-yl)-1,3-dithiane], the Kb in assay [1] is 156 ± 30 nM. In addition, in assay [2], the “percent inhibition of substance P-induced increase in Isc” value came to 55.2%. The ED50 in assay [3] stood at 20.7 mg/kg.

With `CCN(CC)CC#CCCC(O)(c1ccccc1)C1SCCCS1` (stereo not drawn) [2-(6-diethylamino-1-hydroxy-1-phenylhex-4-ynyl)-1,3-dithiane oxalate], the antagonist equilibrium constant (Kb) in assay [1] (setting [4]) was determined as 6710 ± 1450 nM.

Turning to `COc1ccc(CCN(C)CC#CCC2(c3ccccc3)SCCCS2)cc1OC` [2-[4-[2-(3,4-dimethoxyphenyl)ethyl]methylaminobut-2-ynyl]-2-phenyl-1,3-dithiane oxalate], in assay [1] (setting [4]), the Kb turned out to be 1170 ± 350 nM.

As for `CN(CC#CCCC1SCCCS1)Cc1cccc2ccccc12` [2-[5-(1-Naphthylmethyl)methylaminopent-3-ynyl]-1,3-dithiane Oxalate], the Kb in assay [1] (setting [4]) was more than 10000 nM.

In the case of `CN(CC#CCCC1SCCCS1)Cc1ccc2ccccc2c1` [2-[5-(2-Naphthylmethyl)methylaminopent-3-ynyl]-1,3-dithiane Oxalate], the Kb in assay [1] (setting [4]) is 8330 ± 2040 nM.

In the case of `CN(CC#CCCC1SCCCS1)CCc1ccccc1` [2-[5-(2-Phenylethyl)methylaminopent-3-ynyl]-1,3-dithiane Oxalate], in assay [1] (setting [4]), the antagonist equilibrium constant (Kb) was found to be 2270 ± 730 nM.

In the case of `CN(CC#CCCC1(C(O)(c2ccccc2)C2CCCCC2)SCCCS1)CCc1ccccc1` (stereo not drawn) [2-[5-(2-Phenylethyl)methylaminopent-3-ynyl]-2-(α-cyclohexyl-α-hydroxybenzyl)-1,3-dithiane Oxalate], in assay [1] (setting [4]), the Kb was 3750 ± 1250 nM.

With `CN(CC#CCCC1(C(O)(c2ccccc2)c2ccccc2)SCCCS1)CCc1ccccc1` [2-[5-(2-Phenylethyl)methylaminopent-3-ynyl]-2-(α-hydroxy-α-phenylbenzyl)-1,3-dithiane Oxalate Hemihydrate], the antagonist equilibrium constant (Kb) in assay [1] (setting [4]) is 2650 ± 1210 nM.

For the compound `CN(CC#CCCC1(c2ccccc2)SCCCS1)CCc1ccccc1` [2-[5-(2-Phenylethyl)methylaminopent-3-ynyl]-2-phenyl-1,3-dithiane Oxalate], in assay [1] (setting [4]), the Kb amounted to 1740 ± 1080 nM.

Turning to `CN(CC#CCCC1SCCCS1)CCCc1ccccc1` [2-[5-(3-Phenylpropyl)methylaminopent-3-ynyl]-1,3-dithiane Oxalate], in assay [1] (setting [4]), the antagonist dissociation constant (Kb) was 2980 ± 590 nM.

Consider `CN(CC#CCCC1(C(O)(c2ccccc2)c2ccccc2)SCCCS1)CCCc1ccccc1` [2-[5-(3-Phenylpropyl)methylaminopent-3-ynyl]-2-(9-hydroxy-9-phenylbenzyl)-1,3-dithiane Oxalate], for which the antagonist equilibrium constant (Kb) in assay [1] (setting [4]) amounted to 1630 ± 880 nM.

`CN(CC#CCCC1(C2(O)c3ccccc3Sc3ccccc32)SCCCS1)CCCc1ccccc1` [2-[5-(3-Phenylpropyl)methylaminopent-3-ynyl]-2-(9-hydroxy-9H-thioxanthen-9-yl)-1,3-dithiane]: the antagonist dissociation constant (Kb) in assay [1] (setting [4]) was 4160 ± 860 nM.

For the compound `CN(CC#CCCC1(C2(O)c3ccccc3Oc3ccccc32)SCCCS1)CCCc1ccccc1` [2-[5-(3-Phenylpropyl)methylaminopent-3-ynyl]-2-(9-hydroxy-9H-xanthen-9-yl)-1,3-dithiane], the Kb in assay [1] (setting [4]) came to 3090 ± 990 nM.

Take `CN(CC#CCCC1(C2(O)c3ccccc3Sc3ccc(Cl)cc32)SCCCS1)CCCc1ccccc1` (stereo not drawn) [2-[5-(3Phenylpropyl)methylaminopent-3-ynyl)-2-(2-chloro-9-hydroxy-9H-thioxanthen-9-yl)-1,3-dithiane Hemioxalate]: the antagonist dissociation constant (Kb) in assay [1] (setting [4]) is more than 7000 nM.

For the compound `CN1CCN(CC#CCCC2SCCCS2)CC1` [2-[5-(4-Methylpiperazinyl)pent-3-ynyl]-1,3-dithiane Dioxalate], the antagonist dissociation constant (Kb) in assay [1] (setting [4]) is more than 10000 nM.

As to `CN1CCN(CC#CCCC2(C3(O)c4ccccc4Oc4ccccc43)SCCCS2)CC1` [2-[5-(4-Methylpiperazinyl)pent-3-ynyl]-2-(9-hydroxy-9H-xanthen-9-yl)-1,3-dithiane Dioxalate], the Kb in assay [1] (setting [4]) worked out at 488 ± 30 nM.

For the compound `CN(CC#CCCC1SCCCS1)CCCCc1ccccc1` [2-[5-(4-Phenylbutyl)methylaminopent-3-ynyl]-1,3-dithiane Oxalate], the antagonist dissociation constant (Kb) in assay [1] (setting [4]) was found to be 3430 ± 830 nM.

For `CN(CC#CCCC1SCCCS1)Cc1ccccc1` [2-[5-(Benzylmethylaminopent-3-ynyl]-1,3-dithiane Oxalate], the Kb in assay [1] (setting [4]) is 8020 ± 2740 nM.

In the case of `CN(CC#CCCC1(C(O)(c2ccccc2)c2ccccc2)SCCCS1)Cc1ccccc1` [2-[5-(Benzylmethylaminopent-3-ynyl]-2-(α-hydroxy-α-phenylbenzyl)-1,3-dithiane Oxalate Hemihydrate], in assay [1] (setting [4]), the antagonist dissociation constant (Kb) turned out to be 3170 ± 760 nM.

For `COc1ccc(CCN(C)CC#CCCC2SCCCS2)cc1OC` [2-[5-[2-(3,4-Dimethoxyphenyl)ethyl]methylaminopent-3-ynyl]-1,3-dithiane Oxalate], the Kb in assay [1] (setting [4]) is 2220 ± 70 nM.

With `OCCN1CCN(CC#CCCC2SCCCS2)CC1` [2-[5-[4-(2-Hydroxyethyl)piperazinyl]pent-3-ynyl]-1,3-dithiane Dioxalate], the Kb in assay [1] (setting [4]) was more than 10000 nM.

Regarding `CN(CC#CCCCC1SCCCS1)CCc1ccccc1` [2-[6-(2-Phenylethyl)methylaminohex-4-ynyl]-1,3-dithiane Oxalate], the Kb in assay [1] (setting [4]) came to 4180 ± 1540 nM.

On to `CN(CC#CCCC(O)(c1ccccc1)C1SCCCS1)CCc1ccccc1` (stereo not drawn) [2-[6-(2-phenylethyl)methylamino-1-hydroxy-1-phenyl-hex-4-ynyl]-1,3-dithiane oxalate hemihydrate], for which, in assay [1] (setting [4]), the antagonist dissociation constant (Kb) is 2250 ± 530 nM.

On to `COc1ccc(CCN(C)CC#CCCC(O[Si](C)(C)C)(c2ccccc2)C2SCCCS2)cc1OC` (stereo not drawn) [2-[6-[2-(3,4-Dimethoxyphenyl)ethyl]methylamino-1-phenyl-1-trimethylsilyloxyhex-4-ynyl]-1,3-dithiane], for which the Kb in assay [1] (setting [4]) was determined as 570 ± 30 nM.

On to `COc1ccc(CCN(C)CC#CCCC(O)(c2ccccc2)C2SCCCS2)cc1OC` (stereo not drawn) [2[6-[2-(3,4-dimethoxyphenyl)ethyl]methylamino-1-hydroxy-1-phenylhex-4-ynyl]-1,3-dithiane], for which the antagonist dissociation constant (Kb) in assay [1] (setting [4]) was determined as 1230 ± 530 nM.

Regarding `CN(C)C(=O)C(CCN1CCC(O)(c2ccc(Cl)cc2)CC1)(c1ccccc1)c1ccccc1` [loperamide, reference compound], the “percent inhibition of substance P-induced increase in Isc” value in assay [2] came out at 36.1%. In assay [3] (setting [5]), the 50% effective dose (ED50) was found to be 0.16 mg/kg.

As for `COc1ccc(CCN(C)CCCC(C#N)(c2ccc(OC)c(OC)c2)C(C)C)cc1OC` (stereo not drawn) [verapamil], the ED50 in assay [3] (setting [5]) came out at 13.3 mg/kg.
